Test results reported in patent publication US4684620A, “Cyclic polypeptides having mu-receptor specificity” (Gibson-Stephens Neuropharmaceuticals, Inc., priority 1984, dated 1987).
pIC50: −log10 of the molar value. Positions of bridges follow the written chain, without caps; N, C: chain ends. Non-standard residues stand in square brackets, D forms with d. Residues, ends and D or L forms follow the SMILES beside them. Asu = N[C@@H](CCCCCC(=O)O)C(=O)O; dPhg = N[C@@H](C(=O)O)c1ccccc1; Pen = CC(C)(S)[C@H](N)C(=O)O

Key:
mu opioid receptor = target: T1, mu opioid receptor (Rattus norvegicus, UniProt P33535); assay: [3H]naloxone receptor binding to rat brain homogenates; details: for pIC50: 1 nM [3H]naloxone
T1 construct: Adult Sprague-Dawly rats (150-200g) were killed by decapitation; The brain was rapidly removed and homogenized; from tissue; host or cells: rat brain membranes (Sprague-Dawley)
T1 sequence (P33535 whole entry): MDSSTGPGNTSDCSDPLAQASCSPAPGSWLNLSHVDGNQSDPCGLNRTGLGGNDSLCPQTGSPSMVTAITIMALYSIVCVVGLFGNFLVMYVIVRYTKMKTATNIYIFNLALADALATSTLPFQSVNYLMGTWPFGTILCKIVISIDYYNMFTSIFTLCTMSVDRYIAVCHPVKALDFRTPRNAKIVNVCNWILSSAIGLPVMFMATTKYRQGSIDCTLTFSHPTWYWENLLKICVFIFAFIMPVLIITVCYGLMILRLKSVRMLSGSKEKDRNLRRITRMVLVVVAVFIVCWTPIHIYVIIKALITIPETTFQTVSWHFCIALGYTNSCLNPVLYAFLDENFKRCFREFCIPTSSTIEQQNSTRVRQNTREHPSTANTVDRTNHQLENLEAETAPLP
Method: (§1) Adult Sprague-Dawly rats (150-200g) were killed by decapitation. The brain was rapidly removed and homogenized (10% wt/vol in 0.32 M sucrose in a glass homogenizer with a motor driven teflon pestle. The homogenate was then centrifuged at 43,000×g for 10 min and the resulting pellet was resuspended in 50 mM Trisma buffer (pH 7.4 at 25° C.) containing 5 mM MgCl2, 2 mg/ml BSA and 20 mg/ml of bacitracin, using a Polytron homogenizer (15 sec, setting 5). The centrifugation and resuspension step was repeated once.
(§2) For all the inhibition studies, rat brain plasma membranes (100 μl ) were incubated at 25° C. for 60 min in a total of 1.0 ml of 50 mM Trisma buffer containing 220,000 dpm ^125 I-CGP 23,996. See Czernik, A. J. and Petrack, G., J. Biol. Chem. 258,5525-5530 (1983) which is herein specifically incorporated by reference. 1 nM [^3 H-]naloxone (42.3 Ci/mmol, New England Nuclear) or 1 nM [^3 H]DADLE ([D-Ala^2, D-Ala^5 ]enkephalin), [^3 H-3'5'-Tyr]DADLE, 43 Ci/mmol, New England Nuclear, and at least nine concentrations of our synthetic analogues. All incubations were done in duplicate and each compound was tested at least five times. The concentration of test compounds was determined by quantitative amino acid analysis or from published molar extinction coefficients. […] The data were analyzed using nonlinear least squares regression analysis.

δ-opiate receptors = target: T2, δ-opiate receptors (Rattus norvegicus, UniProt P33533); assay: [3H]DADLE receptor binding to rat brain homogenates; details: for pIC50: 1 nM [3H]DADLE
T2 construct: Adult Sprague-Dawly rats (150-200g) were killed by decapitation; The brain was rapidly removed and homogenized; from tissue; host or cells: rat brain membranes (Sprague-Dawley)
T2 sequence (P33533 whole entry): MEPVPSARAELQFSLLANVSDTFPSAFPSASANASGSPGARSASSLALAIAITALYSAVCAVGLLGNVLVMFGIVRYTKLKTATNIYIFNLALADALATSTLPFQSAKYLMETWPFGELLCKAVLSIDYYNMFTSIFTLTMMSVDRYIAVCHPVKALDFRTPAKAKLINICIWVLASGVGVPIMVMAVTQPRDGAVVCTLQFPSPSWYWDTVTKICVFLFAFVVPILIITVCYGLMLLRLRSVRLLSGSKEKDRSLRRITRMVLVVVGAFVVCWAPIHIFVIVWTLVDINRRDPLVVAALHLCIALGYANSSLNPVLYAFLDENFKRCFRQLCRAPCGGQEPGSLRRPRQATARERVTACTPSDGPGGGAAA
Method: as §1, §2

[1] = Partition coefficient, octanol-water; format: physicochemical; details: read-out: Partition Coefficient, Octanol-Water, log P
[2] = target: T3, delta-type opiate receptors (Mus musculus, UniProt P32300); assay: Mouse vas deferens (MVD) test, electrically stimulated contractions, antagonism of DPDPE
T3 construct: from tissue; host or cells: mouse vas deferens
T3 sequence (P32300 whole entry): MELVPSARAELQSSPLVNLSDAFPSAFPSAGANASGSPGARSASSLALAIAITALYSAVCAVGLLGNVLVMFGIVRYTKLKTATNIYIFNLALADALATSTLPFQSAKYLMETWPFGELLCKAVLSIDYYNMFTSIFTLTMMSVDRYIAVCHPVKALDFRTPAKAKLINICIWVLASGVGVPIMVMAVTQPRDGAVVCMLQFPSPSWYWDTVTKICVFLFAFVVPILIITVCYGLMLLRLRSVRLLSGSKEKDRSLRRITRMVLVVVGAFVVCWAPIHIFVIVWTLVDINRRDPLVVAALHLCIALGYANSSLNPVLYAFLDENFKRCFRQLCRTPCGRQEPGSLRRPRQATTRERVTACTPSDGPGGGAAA
Method: (§3) The compounds of the present invention were tested for their ability to inhibit electrically stimulated muscle contractions in the guinea pig ileum (GPI) assay and in the mouse vas deferens (MVD) assay.
The mouse vasa deferentia tests were conducted as follows: vas deferens of male mice were placed in a 60 ml tissue bath and attached to a force transducer. Contractions were induced by electrical stimulation. […] Percent inhibition was calculated.

mu-type opiate receptors = assay: Guinea pig ileum (GPI) test, electrically stimulated contractions, antagonism of morphiceptin; details: morphiceptin alone
Method: as §3
The tests in the guinea pig ileum were conducted as follows: strips of longitudinal muscle with adhering myenteric plexus were prepared from nonterminal ilea of guinea pigs and attached to a force transducer in a 60 ml isolated organ bath. Contractions were elicited by electrical stimulation with a Grass S44D stimulator.

SMILES | pIC50 (mu opioid receptor) | pIC50 (δ-opiate receptors) | logP [1] | other results
C[C@@H](O)[C@H](NC(=O)[C@@H]1CSSC(C)(C)[C@H](NC(=O)[C@H](N)Cc2ccccc2)C(=O)N[C@@H](Cc2ccccc2)C(=O)N[C@H](Cc2c[nH]c3ccccc23)C(=O)N[C@@H](CCCCN)C(=O)N[C@@H]([C@@H](C)O)C(=O)N1)C(=O)O [drawing 32] | 4.21 | 4.42 |  | 
C[C@@H](O)[C@H](NC(=O)[C@H]1NC(=O)[C@H]([C@@H](C)O)NC(=O)[C@H](CCCCN)NC(=O)[C@@H](Cc2c[nH]c3ccccc23)NC(=O)[C@H](Cc2ccc(O)cc2)NC(=O)[C@@H](NC(=O)[C@H](N)Cc2ccccc2)CSSC1(C)C)C(=O)O [Example 1] |  |  | 0.7 | 
C[C@@H](O)[C@H](NC(=O)[C@H]1NC(=O)[C@H]([C@@H](C)O)NC(=O)[C@H](CCCCN)NC(=O)[C@@H](Cc2c[nH]c3ccccc23)NC(=O)[C@H](Cc2ccc(O)cc2)NC(=O)[C@@H](NC(=O)[C@H](N)Cc2ccccc2)CSSC1(C)C)C(=O)O [drawing 26] | 6.53 | 5.42 |  | 
C[C@@H](O)[C@@H]1NC(=O)[C@H](Cc2ccc(O)cc2)NC(=O)[C@H]([C@@H](C)O)NC(=O)[C@H](CCCCN)NC(=O)[C@H](Cc2c[nH]c3ccccc23)NC(=O)[C@H](Cc2ccccc2)NC(=O)[C@H](Cc2ccccc2)NC(=O)[C@H](CC(N)=O)NC(=O)[C@H](CCCCN)NC(=O)CCCCC[C@@H](C(=O)O)NC(=O)[C@H](CO)NC1=O [CGP 23,996, des-Ala^1,Gly^2-desamino-Cys3-[Tyr^11]-dicarba^3,14-somatostatin, reference compound] (KNFFWKTYTS[Asu]-OH; lactam N-11) | < 4.00 | < 4.00 |  | 
C[C@@H](O)[C@H](NC(=O)[C@H]1NC(=O)[C@H]([C@@H](C)O)NC(=O)[C@H](CCCCN)NC(=O)[C@@H](Cc2c[nH]c3ccccc23)NC(=O)[C@H](Cc2ccccc2)NC(=O)[C@@H](NC(=O)[C@H](N)Cc2ccccc2)CSSC1(C)C)C(=O)O [drawing 27] | 6.03 | 5.27 |  | 
C[C@@H](O)[C@H](NC(=O)[C@H]1NC(=O)[C@H]([C@@H](C)O)NC(=O)[C@H](CCCCN)NC(=O)[C@@H](Cc2c[nH]c3ccccc23)NC(=O)[C@H](Cc2ccccc2)NC(=O)[C@@H](NC(=O)[C@H](N)Cc2ccccc2)CSSC1(C)C)C(N)=O [drawing 25] | 8.00 | 5.96 |  | 
C[C@H](N)C(=O)NCC(=O)N[C@H]1CSSC[C@@H](C(=O)O)NC(=O)[C@H](CO)NC(=O)[C@H]([C@@H](C)O)NC(=O)[C@H](Cc2ccccc2)NC(=O)[C@H]([C@@H](C)O)NC(=O)[C@H](CCCCN)NC(=O)[C@H](Cc2c[nH]c3ccccc23)NC(=O)[C@H](Cc2ccccc2)NC(=O)[C@H](Cc2ccccc2)NC(=O)[C@H](CC(N)=O)NC(=O)[C@H](CCCCN)NC1=O [SOMATOSTATIN, somatostatin, reference compound] |  |  |  | [3H]Naloxone nH (mu opioid receptor): 1.02; [3H]DADLE nH (δ-opiate receptors): 1.09
C[C@@H](O)[C@H](NC(=O)[C@H]1NC(=O)[C@H]([C@@H](C)O)NC(=O)[C@H](CCCCN)NC(=O)[C@@H](Cc2c[nH]c3ccccc23)NC(=O)[C@H](Cc2ccc(O)cc2)NC(=O)[C@@H](NC(=O)[C@H](N)Cc2ccccc2)CSSC1(C)C)C(N)=O [Example VI] |  |  | -0.2 | 
C[C@@H](O)[C@H](NC(=O)[C@@H]1CSSC(C)(C)[C@H](NC(=O)[C@H](N)c2ccccc2)C(=O)N[C@@H](Cc2ccccc2)C(=O)N[C@H](Cc2c[nH]c3ccccc23)C(=O)N[C@@H](CCCCN)C(=O)N[C@@H]([C@@H](C)O)C(=O)N1)C(=O)O [drawing 28] (H-[dPhg][Pen]F[dW]KTCT-OH; disulfide 2-7) | 5.60 | 4.87 |  | 
C[C@@H](O)[C@H](NC(=O)[C@H]1NC(=O)[C@H]([C@@H](C)O)NC(=O)[C@H](CCCCN)NC(=O)[C@@H](Cc2c[nH]c3ccccc23)NC(=O)[C@H](Cc2ccccc2)NC(=O)[C@@H](NC(=O)[C@H](N)Cc2ccccc2)C(C)(C)SSC1(C)C)C(=O)O [Example V] |  |  | 0 | 
C[C@@H](O)[C@H](NC(=O)[C@H]1NC(=O)[C@H]([C@@H](C)O)NC(=O)[C@H](CCCCN)NC(=O)[C@@H](Cc2c[nH]c3ccccc23)NC(=O)[C@H](Cc2ccc(O)cc2)NC(=O)[C@@H](NC(=O)[C@H](N)Cc2ccccc2)CSSC1(C)C)C(N)=O [drawing 41] |  |  |  | Percent inhibition of contractions ([2]; DPDPE 1 nM plus 1000 nM analog): 13 ± 3%; Percent inhibition of contractions ([2]; DPDPE 3 nM plus 1000 nM analog): 28 ± 4%; Percent inhibition of contractions ([2]; DPDPE 10 nM plus 1000 nM analog): 48 ± 8%; Percent inhibition of contractions ([2]; DPDPE 30 nM plus 1000 nM analog): 73 ± 9%; Percent inhibition of contractions ([2]; DPDPE 100 nM plus 1000 nM analog): 91 ± 5%; Percent inhibition of contractions ([2]; DPDPE 300 nM plus 1000 nM analog): 97 ± 1%
C[C@@H](O)[C@H](NC(=O)[C@H]1NC(=O)[C@H]([C@@H](C)O)NC(=O)[C@H](CCCCN)NC(=O)[C@@H](Cc2c[nH]c3ccccc23)NC(=O)[C@H](Cc2ccccc2)NC(=O)[C@@H](NC(=O)[C@H](N)Cc2ccccc2)CSSC1(C)C)C(N)=O [VII] |  |  | 0.36 | 
CC(=O)N[C@@H](Cc1ccccc1)C(=O)N[C@H](Cc1c[nH]c2ccccc12)C(=O)N[C@@H](CCCCN)C(=O)N[C@H](C(=O)O)[C@@H](C)O [AcPhe --D-TrpLysThr, reference compound] (Ac-F[dW]KT-OH) | 4.29 | 5.23 |  | 
NC(=O)[C@@H]1CCCN1C(=O)[C@H](Cc1ccccc1)NC(=O)[C@@H]1CCCN1C(=O)[C@@H](N)Cc1ccc(O)cc1 [Morphiceptin] (H-YPFP-NH2) |  |  |  | Percent inhibition of contractions (mu-type opiate receptors; 300 nM): 28 ± 3%; Percent inhibition of contractions (mu-type opiate receptors; 1000 nM): 58 ± 3%; Percent inhibition of contractions (mu-type opiate receptors; 3000 nM): 73 ± 4%; Percent inhibition of contractions (mu-type opiate receptors; 10000 nM): 73 ± 3%
C[C@@H](O)[C@H](NC(=O)[C@H]1NC(=O)[C@H]([C@@H](C)O)NC(=O)[C@H](CCCCN)NC(=O)[C@@H](Cc2c[nH]c3ccccc23)NC(=O)[C@H](Cc2ccc(O)cc2)NC(=O)[C@@H](NC(=O)[C@H](N)Cc2ccccc2)CSSC1(C)C)C(N)=O [drawing 24] | 8.46 | 6.02 |  | 
C[C@@H](O)[C@H](NC(=O)[C@@H]1CSSC(C)(C)[C@H](NC(=O)[C@H](N)c2ccccc2)C(=O)N[C@@H](Cc2ccccc2)C(=O)N[C@H](Cc2c[nH]c3ccccc23)C(=O)N[C@@H](CCCCN)C(=O)N[C@@H]([C@@H](C)O)C(=O)N1)C(=O)O [VIII] (H-[dPhg][Pen]F[dW]KTCT-OH; disulfide 2-7) |  |  | -0.57 | 
C[C@@H](O)[C@H](NC(=O)[C@H]1NC(=O)[C@H]([C@@H](C)O)NC(=O)[C@H](CCCCN)NC(=O)[C@@H](Cc2c[nH]c3ccccc23)NC(=O)[C@H](Cc2ccccc2)NC(=O)[C@@H](NC(=O)[C@H](N)Cc2ccccc2)CSSC1(C)C)C(=O)O [III] |  |  | -0.71 | 
C[C@@H](O)[C@H](NC(=O)[C@@H]1CSSC(C)(C)[C@H](NC(=O)[C@H](N)Cc2ccccc2)C(=O)N[C@@H](Cc2ccc(O)cc2)C(=O)N[C@H](Cc2c[nH]c3ccccc23)C(=O)N[C@@H](CCCCN)C(=O)N[C@@H]([C@@H](C)O)C(=O)N1)C(=O)O | 6.33 | 5.59 |  | 
C[C@@H](O)[C@H](NC(=O)[C@@H]1CSSC[C@H](NC(=O)[C@H](N)Cc2ccccc2)C(=O)N[C@@H](Cc2ccccc2)C(=O)N[C@H](Cc2c[nH]c3ccccc23)C(=O)N[C@@H](CCCCN)C(=O)N[C@@H]([C@@H](C)O)C(=O)N1)C(=O)O [drawing 31] | 5.59 | 5.50 |  | 
C[C@@H](O)[C@H](NC(=O)[C@@H]1CSSC[C@H](NC(=O)[C@H](N)Cc2ccccc2)C(=O)N[C@@H](Cc2ccccc2)C(=O)N[C@H](Cc2c[nH]c3ccccc23)C(=O)N[C@@H](CCCCN)C(=O)N[C@@H]([C@@H](C)O)C(=O)N1)C(=O)O [II] |  |  | -0.77 | 
C[C@@H](O)[C@H](NC(=O)[C@H]1NC(=O)[C@H]([C@@H](C)O)NC(=O)[C@H](CCCCN)NC(=O)[C@@H](Cc2c[nH]c3ccccc23)NC(=O)[C@H](Cc2ccccc2)NC(=O)[C@@H](NC(=O)[C@H](N)Cc2ccccc2)C(C)(C)SSC1(C)C)C(=O)O [drawing 30] | 5.08 | 4.96 |  | 
C[C@@H](O)[C@H](NC(=O)[C@@H]1CSSC(C)(C)[C@H](NC(=O)[C@H](N)Cc2ccccc2)C(=O)N[C@@H](Cc2ccccc2)C(=O)N[C@H](Cc2c[nH]c3ccccc23)C(=O)N[C@@H](CCCCN)C(=O)N[C@@H]([C@@H](C)O)C(=O)N1)C(=O)O [IV] |  |  | -0.22 | 
